Data from US20230241232A1, “Size-Dependent Brain and Lymphatic Distribution of Macromolecular Drug Delivery Platform” (The United States of America, As Represented by the …, priority 2020, published 2023).

Target: T1, scavenger receptor A (Mus musculus, UniProt P30204)
T1 construct: endogenous in cells; host or cells: Raw 264.7 macrophages
T1 sequence (P30204 1-458): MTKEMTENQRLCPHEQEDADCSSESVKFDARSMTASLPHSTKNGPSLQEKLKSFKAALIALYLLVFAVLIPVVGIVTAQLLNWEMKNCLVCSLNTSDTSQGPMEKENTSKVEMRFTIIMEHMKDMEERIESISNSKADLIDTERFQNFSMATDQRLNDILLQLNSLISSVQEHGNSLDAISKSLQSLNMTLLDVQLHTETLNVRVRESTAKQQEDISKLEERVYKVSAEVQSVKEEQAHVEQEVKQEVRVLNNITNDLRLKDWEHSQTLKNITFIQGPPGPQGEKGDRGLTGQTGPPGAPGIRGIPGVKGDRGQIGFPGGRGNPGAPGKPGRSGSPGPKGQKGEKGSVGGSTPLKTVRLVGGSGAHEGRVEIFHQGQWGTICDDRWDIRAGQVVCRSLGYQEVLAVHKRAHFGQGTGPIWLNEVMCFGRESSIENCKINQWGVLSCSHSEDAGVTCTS
Assay: Competitive inhibition of polymer-488 cell uptake by poly I / poly C in Raw 264.7 macrophages
Type: cell-based
Details: for inhibition of polymer-488 fluorescence (% control): Raw 264.7 cells, various inhibitor concentrations, polymer-488 constant, 37° C. 3 hours, FIG. 4; for inhibition of scavenger receptor interaction of polymer-488 (fluorescence): Raw 264.7 macrophages, various concentrations of polymer-488, with or without inhibitor, FIG. 3
Procedure: The fluorescently labelled poly(L-lysine succinylated) was also tested for cell uptake in a macrophage cell line Raw 264.7 in the presence of competitive inhibitors and relevant controls. […] At higher concentrations of polymer-488, fluorescence is seen due to competing off the poly I.
In a follow up study, cells were treated with various concentrations of either poly I or poly C while polymer-488 concentration remained constant. In this study, Raw 264.7 cells were incubated overnight at 400,000 cells/mL. The cells were then treated with various concentrations of polymer-488 and either 200 μg/mL poly I, 200 μg/mL poly C, or no inhibitor. The cells were incubated at 37° C. for 3 hours, washed 3 times with media, and fluorescence measured.

| Substance | inhibition of polymer-488 fluorescence (% control) | inhibition of scavenger receptor interaction of polymer-488 (fluorescence) |
| --- | --- | --- |
| polycytidylic acid [poly C] | virtually no inhibition of fluorescence | not with poly C |
| polyinosinic acid [poly I] | dose-dependent inhibition | inhibition of scavenger receptor interaction |
